Assays:
HCT116 WT cells = test: HCT116 WT (parent) cell line proliferation / cell viability (CellTiter-Glo, 6 days); format: cell-based; conditions: Homo sapiens, HCT-116, 144 h, 6 days treatment
Outline: (§1)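 Isogenic HCT116 pair (parental and MTAP-knockout) in RPMI 1640 + 10% FBS, treated 6 days with 8–9-point 1:3 dilutions from 1 or 10 μM top, or 22-point 1:2 dilutions from 10 or 50 μM top. Viability by CellTiter-Glo luminescence; IC50 from 4-parameter logistic fit or sigmoidal fit with Hill slope fixed at −1.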

HCT116 MTAP null cells = test: HCT116 MTAP null cell line proliferation / cell viability (CellTiter-Glo, 6 days); format: cell-based; conditions: 144 h; HCT116 MTAP null cells, 6 days treatment, CellTiter-Glo cell viability; read-out: HCT-116 MTAP null IC50
Outline: as §1

SMILES | IC50 (HCT116 WT cells) [nM] | IC50 (HCT116 MTAP null cells) [nM]
CN(C(=O)c1cc2c(cn1)nc(N)c1c2cnn1C)[C@@H]1COc2cc(S(F)(F)(F)(F)F)ccc21 [Example 257, 4-amino-N,3-dimethyl-N-((3S)-6-(pentafluoro-lambda~6~-sulfanyl)-2,3-dihydro-1-benzofuran-3-yl)-3H-pyrazolo[3,4-c][1,7]naph-thyridine-8-carboxamide] | 2020 | 59
CN(C(=O)c1cc2c3c(c(N)nc2cn1)COC3)[C@@H]1COCc2cc(Br)ccc21 (single isomer, unassigned) [Example 398] | 911 | 20
CN(C(=O)c1cc2c3c(c(N)nc2cc1F)COC3)[C@@H]1COCc2cc(S(C)(=O)=O)ccc21 (single isomer, unassigned) [Example 591] | 1600 | 26
C[C@H]1OCc2c1c(N)nc1cc(F)c(C(=O)N(C)[C@@H]3COc4cc(C(F)(F)F)ccc43)cc21 [Example 466, (3R)-4-amino-7-fluoro-N,3-dimethyl-N-((3S)-6-(trifluoromethyl)-2,3-dihydro-1-benzofuran-3-yl)-1,3-dihydrofuro[3,4-c]quinoline-8-carboxamide] | 245 | 9
CN(C(=O)c1ccc2nc(N)c3cnn(C)c3c2c1)[C@@H]1COc2cc(C(F)(F)F)ncc21 [Example 227, 4-amino-N,1-dimethyl-N-((3S)-6-(trifluoromethyl)-2,3-dihydrofuro[3,2-c]pyridin-3-yl)-1H-pyrazolo[4,3-c]-quinoline-8-carboxamide] | 1480 | 19
CCOc1ccc2c(n1)COC[C@H]2N(C)C(=O)c1ccc2nc(N)c3c(cnn3C)c2c1 (single isomer, unassigned) [Example 438] | 25200 | 193
CN(C(=O)c1ccc2nc(N)c3c(c2c1)COC3)[C@@H]1COc2cc(S(C)(=O)=O)ccc21 (single isomer, unassigned) [Example 323] | 3450 | 76
CN(C(=O)c1cc2c(cc1F)nc(N)c1cnn(C)c12)C1COc2cc(C(F)(F)F)cc(F)c21 (racemic) [Example 245, 4-amino-7-fluoro-N-((3R)-4-fluoro-6-(trifluoromethyl)-2,3-dihydro-1-benzofuran-3-yl)-N,1-dimethyl-1H-pyrazolo-[4,3-c]quinoline-8-carboxamide and 4-amino-7-fluoro-N-((3S)-4-fluoro-6-(trifluoromethyl)-2,3-dihydro-1-benzofuran-3-yl)-N,1-dimethyl-1H-pyrazolo[4,3-c]quinoline-8-carboxamide] | 880 | 19
CCN(C(=O)c1ccc2nc(N)c3cnn(C)c3c2c1)[C@@H]1COCc2nc(C(F)(F)F)ccc21 [Example 501, 4-amino-N-ethyl-1-methyl-N-((5S)-2-(trifluoromethyl)-5,8-dihydro-6H-pyrano[3,4-b]pyridin-5-yl)-1H-pyrazolo[4,3-c]quinoline-8-carboxamide] | 141 | 4
CN(C(=O)c1cc2c3c(c(N)nc2cn1)COC3)[C@@H]1COc2cc(Cl)c(Cl)cc21 [Example 209, 4-amino-N-((3S)-5,6-dichloro-2,3-dihydro-1-benzofuran-3-yl)-N-methyl-1,3-dihydrofuro[3,4-c][1,7]naphthyridine-8-carbox-amide] | 3000 | 61
CN(C(=O)c1ccc2nc(N)c3c(c2c1)COC3)[C@H]1COc2cc(C3CC3)ccc21 (single isomer, unassigned) [Example 611] | 10500 | 1690
C[C@H]1OC[C@H](N(C)C(=O)c2ccc3nc(N)c4c(cnn4C)c3c2)c2ccc(C(F)(F)F)cc21 (single isomer, unassigned) [Example 602] | 21300 | 4260
CN(C(=O)c1cc2c3c(c(N)nc2nc1Cl)COC3)[C@@H]1COCc2cc(C(F)(F)F)ccc21 [Example 276, 4-amino-7-chloro-N-methyl-N-((4S)-7-(trifluoromethyl)-3,4-dihydro-1H-2-benzopyran-4-yl)-1,3-dihydrofuro[3,4-c][1,8]-naphthyridine-8-carboxamide] | 417 | 16
CCOc1ncc2c(n1)COC[C@H]2N(C)C(=O)c1ccc2nc(N)c3cnn(C)c3c2c1 [Example 285, 4-amino-N-((5S)-2-ethoxy-5,8-dihydro-6H-pyrano[3,4-d]-pyrimidin-5-yl)-N,1-dimethyl-1H-pyrazolo[4,3-c]quinoline-8-carboxamide] | 31300 | 974
CN(C(=O)c1cc2c(cc1F)nc(N)c1cnn(C)c12)[C@@H]1COCc2c1ccc(F)c2F (single isomer, unassigned) [Example 597] | 795 | 15
CN(C(=O)c1cc2c(cc1Cl)nc(N)c1cnn(C)c12)[C@]1(C)CCc2nc(C(F)(F)F)ccc21 (single isomer, unassigned) [Example 384] | 17200 | 869
CN(C(=O)c1cc2c(cc1F)nc(N)c1cnn(C)c12)[C@@H]1CCCc2nc(C(F)(F)F)ccc21 (single isomer, unassigned) [Example 429] | 2350 | 49
CN(C(=O)c1cc2c3c(c(N)nc2cc1Cl)COC3)[C@@H]1COc2cc(S(C)(=O)=O)ccc21 (single isomer, unassigned) [Example 564] | 925 | 19
CCN(C(=O)c1cc2c3c(c(N)nc2cn1)COC3)[C@H]1COc2cc(C(F)(F)F)ccc21 (single isomer, unassigned) [Example 544] | 15200 | 5230
CN(C(=O)c1ccc2nc(N)c3c(c2c1)COC3)C1COc2cc(C(F)(F)F)ncc21 (racemic) [Example 445, 4-amino-N-methyl-N-((3R)-6-(trifluoromethyl)-2,3-dihydrofuro[3,2-c]pyridin-3-yl)-1,3-dihydrofuro[3,4-c]quinoline-8-carboxamide and 4-amino-N-methyl-N-((3S)-6-(trifluoromethyl)-2,3-dihydrofuro[3,2-c]pyridin-3-yl)-1,3-dihydrofuro[3,4-c]quinoline-8-carboxamide] | 12600 | 316
CN(C(=O)c1cc2c3c(c(N)nc2cn1)COC3)[C@@H]1COCc2cc(C(F)(F)F)ccc21 [Example 490, 4-amino-N-methyl-N-((4S)-7-(trifluoromethyl)-3,4-dihydro-1H-2-benzopyran-4-yl)-1,3-dihydrofuro[3,4-c][1,7]naphthyridine-8-carboxamide] | 1030 | 33
Cc1nn(C)c2c1c(N)nc1cnc(C(=O)N(C)[C@@H]3COCc4cc(C(F)(F)F)ccc43)cc12 [Example 311, 4-amino-N,1,3-trimethyl-N-((4S)-7-(trifluoromethyl)-3,4-dihydro-1H-2-benzopyran-4-yl)-1H-pyrazolo[4,3-c][1,7]-naphthyridine-8-carboxamide] | 1020 | 30
Cc1cc2nc(N)c3cnn(C)c3c2cc1C(=O)N(C)[C@H]1COCc2c1ccc(C(F)(F)F)c2F (single isomer, unassigned) [Example 437] | 687 | 41
CN(C(=O)c1cc2c3c(c(N)nc2cc1F)COC3)C1c2ccc(C(F)(F)F)nc2CC1(F)F (racemic) [Example 215, 4-amino-N-((5R)-6,6-difluoro-2-(trifluoromethyl)-6,7-dihydro-5H-cyclopenta[b]-pyridin-5-yl)-7-fluoro-N-methyl-1,3-dihydrofuro[3,4-c]-quinoline-8-carboxamide and 4-amino-N-((5S)-6,6-difluoro-2-(trifluoromethyl)-6,7-dihydro-5H-cyclopenta[b]pyridin-5-yl)-7-fluoro-N-methyl-1,3-dihydro-furo[3,4-c] quinoline-8-carboxamide] | 15000 | 427
Nc1nc2cc(F)c(C(=O)N(CC3CC3)[C@H]3COc4cc(C(F)(F)F)ccc43)cc2c2c1COC2 (single isomer, unassigned) [Example 557] | 10500 | 665
Nc1nc2ccc(C(=O)N(C3CC3)[C@@H]3COc4cc(C(F)(F)F)ccc43)cc2c2c1COC2 [Example 448, 4-amino-N-cyclopropyl-N-((3S)-6-(trifluoromethyl)-2,3-dihydro-1-benzofuran-3-yl)-1,3-dihydrofuro[3,4-c]quinoline-8-carboxamide] | 3710 | 58
CN(C(=O)c1cc2c(cc1F)nc(N)c1cnn(C)c12)[C@H]1COCc2c1ccc(C(F)(F)F)c2F (single isomer, unassigned) [Example 433] | 3280 | 418
CN(C(=O)c1ccc2nc(N)c3cnn(C)c3c2c1)[C@@H]1COc2cc(Br)ccc21 [Example 234, 4-amino-N-((3S)-6-bromo-2,3-dihydro-1-benzofuran-3-yl)-N,1-dimethyl-1H-pyrazolo[4,3-c]quinoline-8-carboxamide] | 613 | 8
CN(C(=O)c1cc2c(cc1F)nc(N)c1c2cnn1C)[C@@H]1COc2cc(C(F)(F)F)ccc21 [Example 258, 4-amino-7-fluoro-N,3-dimethyl-N-((3S)-6-(trifluoromethyl)-2,3-dihydro-1-benzofuran-3-yl)-3H-pyrazolo[3,4-c]quinoline-8-carboxamide] | 4030 | 54
CN(C(=O)c1cc2c3c(c(N)nc2cc1F)COC3)C1COc2cc(OC(F)F)ccc21 (racemic) [Example 459, 4-amino-N-((3R)-6-(difluoromethoxy)-2,3-dihydro-1-benzofuran-3-yl)-7-fluoro-N-methyl-1,3-dihydrofuro[3,4-c]quinoline-8-carboxamide and 4-amino-N-((3S)-6-(difluoromethoxy)-2,3-dihydro-1-benzofuran-3-yl)-7-fluoro-N-methyl-1,3-dihydrofuro[3,4-c]quinoline-8-carboxamide] | 5540 | 91

— patent US20240124442A1, “TRICYCLIC-AMIDO-BICYCLIC PRMT5 INHIBITORS” (AMGEN INC., priority 2021, published 2024)
